Measured values published in ChEMBL document CHEMBL5030526, “Synthesis and Preclinical Validation of Novel Indole Derivatives as a GPR17 Agonist for Glioblastoma Treatment” (J Med Chem, 2021).
Calls of active or inactive are those of the source. The calls are words filed in the database; no cut-off is given here.

How the values were obtained:
[1] = molecular target: T1, Uracil nucleotide/cysteinyl leukotriene receptor (Homo sapiens, UniProt Q13304); experiment: Inverse agonist at human GPR17 in human SNB-19 cells assessed as intracellular cAMP levels incubated for 2 hrs by cAMP Glo Dynamic assay
[2] = molecular target: T1, Uracil nucleotide/cysteinyl leukotriene receptor; experiment: Agonist activity at human GPR17 in human LN-229 cells assessed as decrease in calcium ion levels incubated for 2 hrs by Calcium Fura 2 Dynamic assay
[3] = molecular target: T1, Uracil nucleotide/cysteinyl leukotriene receptor; experiment: Agonist activity at human GPR17 in human SNB-19 cells assessed as decrease in calcium ion levels incubated for 2 hrs by Calcium Fura 2 Dynamic assay
[4] = molecular target: T1, Uracil nucleotide/cysteinyl leukotriene receptor; experiment: Inverse agonist at human GPR17 in human LN-229 cells assessed as intracellular cAMP levels incubated for 2 hrs by cAMP Glo Dynamic assay
SNB-19 [5] = experiment: Cytotoxicity effect against human SNB-19 cells assessed as cell growth inhibition incubated for 48 hrs by trypan blue exclusion assay; type: functional, cell-based; settings: SNB-19, 48 h
LN-229 [6] = experiment: Cytotoxicity against human LN-229 cells assessed as increase in cell death at 100 uM incubated for 48 hrs by trypan blue exclusion assay; type: functional, cell-based
LN-229 [7] = experiment: Cytotoxicity against human LN229 cells assessed as cell growth inhibition at 100 uM incubated for 48 hrs by trypan blue exclusion assay; type: functional; settings: read-out: GI
SNB-19 [8] = experiment: Cytotoxicity against human SNB-19 cells assessed as cell growth inhibition at 100 uM incubated for 48 hrs by trypan blue exclusion assay; type: functional; settings: read-out: GI
[9] = molecular target: T1, Uracil nucleotide/cysteinyl leukotriene receptor; experiment: Agonist activity at human GPR17 in human LN-229 cells assessed as decrease in intracellular cAMP levels incubated for 2 hrs by cAMP Glo Dynamic assay
LN-229 [10] = experiment: Cytotoxicity effect against human LN-229 cells assessed as cell growth inhibition incubated for 48 hrs by trypan blue exclusion assay; type: functional, cell-based; settings: LN-229, 48 h
[11] = Cytotoxicity against mouse MEF cells assessed as cell growth inhibition at 100 uM incubated for 48 hrs by trypan blue exclusion assay; type: cell-based

T1 sequence (Q13304 whole entry): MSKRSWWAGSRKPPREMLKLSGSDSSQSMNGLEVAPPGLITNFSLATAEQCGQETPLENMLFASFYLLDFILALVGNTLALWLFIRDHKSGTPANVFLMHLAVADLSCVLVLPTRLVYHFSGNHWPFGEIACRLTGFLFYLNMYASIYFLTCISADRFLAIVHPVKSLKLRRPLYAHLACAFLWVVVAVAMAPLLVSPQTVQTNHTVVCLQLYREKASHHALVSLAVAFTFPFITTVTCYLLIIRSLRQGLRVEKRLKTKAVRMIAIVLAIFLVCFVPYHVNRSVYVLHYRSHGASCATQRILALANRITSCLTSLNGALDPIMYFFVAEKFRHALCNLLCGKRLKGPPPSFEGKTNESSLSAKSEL

| SMILES | EC50 [1] [µM] | EC50 [2] [µM] | EC50 [3] [µM] | EC50 [4] [µM] | IC50 (SNB-19 [5]) [µM] | Activity (LN-229 [6]) | inhibition of growth at 100 µM (LN-229 [7]) [%] | inhibition of growth at 100 µM (SNB-19 [8]) [%] | EC50 [9] [µM] | IC50 (LN-229 [10]) [µM] | inhibition at 48 h, 100 µM [11] [%] |
| --- | --- | --- | --- | --- | --- | --- | --- | --- | --- | --- | --- |
| O=C(O)CCC1=C(C(=O)O)Cc2cc(Cl)cc(Cl)c21 | 17.7 | 26.9 | 26.3 | 16.6 |  |  |  |  |  |  |  |
| O=C(Nc1ccccc1)Oc1cc(OC(=O)Nc2ccccc2)c2c(c1)N(C(c1ccc(F)cc1)c1cccc(Cl)c1O)CC2 (stereo not given) |  | 41.9 | 7.67 |  | 85.5 | Active | 50 | 37 | 59.6 | 85.3 | < 5 |
| Cn1nnc2c(C(N)=O)ncn2c1=O [TEMOZOLOMIDE] |  |  |  |  | 69.9 |  |  |  |  | 67.8 |  |
